The subject of the test is THP-1 viability, CellTiter-Glo luminescence, 72 h. The experiment in a line: PubChem AID 2252.

Drawing on PubChem BioAssay AID2252 (Southern Research Specialized Biocontainment Screening …, 2010), this text covers EC50 for 101 compounds.

Several values for one entry are separate records, joined by “and”; a condition that tells them apart may be missing. Equal entries are not always repeated.

The EC50 is the concentration at which the effect is half-maximal. Regarding `O=C(NC(=S)NNC(=O)c1ccccc1O)c1ccco1`, the EC50 was 17.2 µM.
Under `O=Nc1c(O)c2ccccc2c2ccccc12` stands 3.08 µM; under `OCCCCNCc1ccc(OCc2ccccc2Cl)cc1`, 34.6 µM.
Under `COc1cc2c(cc1O)[C@H](Cc1ccc(Oc3cc(C[C@@H]4NCCc5cc(OC)c(O)cc54)ccc3O)cc1)NCC2` stands 48.3 µM; under `CCCN(CCC)CCNC(=O)C1CCN(Cc2nc(-c3ccc(Cl)cc3)oc2C)CC1`, 24.8 µM; under `Cn1cnc2cc(NC(=O)c3cccs3)ccc21`, < 0.1 µM.
Take `CNCCCCOc1ccc(C(C)(C)C)cc1Cl`: the concentration giving a half-maximal response (EC50) was 21.8 µM.
On to `CN1CCN(c2ccccc2NC(=O)c2cc3c(s2)-c2ccccc2OC3)CC1`, for which the EC50 is 9.73 µM.
Under `Cc1ccc(C(=O)NCCN2C3=NC[C@@H](Cc4ccccc4)N3C[C@H]2Cc2ccc(O)cc2)cc1Br` stands 8.09 µM; under `NC(=O)c1ccsc1NC(=O)c1ccc2c(c1)CCCC2`, 40.4 µM.
Under `CCOc1cc(Br)cc(/C=N/NC(=O)c2cccnc2)c1O` stands 7.58 µM; under `Cc1nonc1C(=O)N/N=C/c1ccc(O)cc1O`, 8.05 µM; under `CCc1nc(N)nc(N)c1-c1ccc(Cl)cc1`, 10.5 µM.
Under `O=C(CCc1ccccc1)NNC(=O)c1ccccn1` stands 18.2 µM.
`CCOc1ccc(Nc2nc(N)c3ccccc3n2)cc1`: the EC50 was 6.96 µM.
For the compound `Cc1ccc(-n2c(Cc3noc4ccccc34)n[nH]c2=S)cc1`, the EC50 is < 0.1 µM.
For the compound `O=C(NNC(=S)NC(=O)c1ccco1)c1ccc(F)cc1`, the EC50 was 9.47 µM.
The same measure for `CC1(C)CC(N2CCN(C(c3ccccc3)c3ccccc3)CC2)=CC(=[N+]2CCCCC2)C1`: 1.05 µM; for `COc1ccc(CCN2CCC(Nc3nc4ccccc4n3Cc3ccc(F)cc3)CC2)cc1`: 3.8 µM; for `CCOC(=O)c1cc(-c2ccc(F)cc2)n(CCC(=O)NC2CCN(Cc3ccccc3)CC2)c1C`: 18.9 µM.
The same measure for `C=CCNc1ncnc2c1[nH]c1ccc(Cl)cc12`: 7.13 µM; for `CN1CCN(c2ccc(NC(=O)c3ccc(-c4ccc(Br)cc4)o3)cc2)CC1`: 7.84 µM.
The same measure for `O=C(COc1ccc(Br)cc1CNCCc1ccccc1)NCc1ccccc1`: 10.4 µM; for `CCc1ccc(NC(=O)C[n+]2cc(-c3ccc(C)cc3)n3c2CCC3)cc1`: 5.71 µM; for `CCCCCCCCCCCCOC(=O)C[N+](C)(C)C`: 23.7 µM.
`O=C1C=C(Nc2ccccc2O)c2ccccc2C1=O`: the EC50 was 10.8 µM.
As to `O=C(N/N=C/c1cc(Br)cc(Br)c1O)c1ccncc1`, the EC50 is 4.01 µM.
The same measure for `CCn1cc(C(=O)NCc2ccc3c(c2)OCO3)c(=O)c2cc(F)c(N3CCN(C(=O)c4ccco4)CC3)cc21`: 19.9 µM; for `CC1CCN(CCOCCOc2ccc(Br)cc2Cl)CC1`: 32.9 µM.
For the compound `CN1CCN(CCCN2c3ccccc3Sc3ccc(Cl)cc32)CC1`, the EC50 is 14.7 µM and 10.2 µM.
As for `C/C(=N\Nc1ccc2nncn2n1)c1ccccn1`, the EC50 is 6.13 µM.
Regarding `COc1cc2c3cc1Oc1cc(ccc1O)C[C@@H]1c4c(cc(OC)c(O)c4Oc4ccc(cc4)C[C@H]3N(C)CC2)CCN1C`, the EC50 was 8.8 µM.
With `Brc1ccc2c(c1)C(OC1CN3CCC1CC3)c1ccccc1CS2` (stereo unspecified), the EC50 was 8.31 µM.
As to `Cc1ccc(C(=O)N/N=C\c2ccc([N+](=O)[O-])s2)cn1`, the EC50 is 13.2 µM.
Under `Cc1c2ccncc2c(C)c2c1[nH]c1ccccc12` stands 2.72 µM; under `CC[n+]1c(/C=C/C=C/c2ccc(N(C)C)cc2)sc2ccccc21`, 1.43 µM; under `O=S1(=O)Nc2c(ccc3cccnc23)-c2ccccc21`, 1.2 µM.
On to `COc1cc(Br)cc(/C=N/c2ncn[nH]2)c1O`, for which the EC50 was 49.9 µM.
The same measure for `O=C(c1ccccc1)c1c2c(cc3sc4ccccc4[n+]13)-c1cccc3cccc-2c13`: 1.36 µM.
Under `Cc1ccc(C(C[N+](=O)[O-])c2c(N)n(C)c(=O)n(C)c2=O)cc1` (stereo unspecified) stands 26.3 µM.
As for `O=C(CNCCC1=CCCCC1)Nc1ccc(N2CCCCCC2)cc1`, the EC50 is 15.6 µM.
Under `O=[N+]([O-])c1cc(F)c2cccnc2c1O` stands 22.9 µM.
Under `CCN(CC(O)COc1ccc(OCC(O)CN(CC)C2CCCCC2)cc1)C1CCCCC1` (stereo unspecified) stands 37.4 µM; under `CN(C)CCNc1oc(COc2ccc(-c3ccccc3)cc2)nc1C#N`, 13.1 µM; under `O=C(CCN1CCN(c2ccccc2F)CC1)c1ccc(Br)cc1`, 17 µM.
As to `CCN1/C(=C/C=C/C=C/c2sc3ccccc3[n+]2CC)Sc2ccccc21`, the EC50 was 7.7 µM.
With `Nc1nc2ccccc2n1Cc1ccc(Cl)c(Cl)c1`, the EC50 was 31.6 µM.
Regarding `CCCCOc1ccc(Br)cc1CSC(=N)N`, the EC50 was 5.93 µM.
Consider `CCCCOc1ccc(C(=O)NNC(=S)NC(=O)CC)cc1`, for which the EC50 was 3.29 µM.
On to `CN1CCN(C2Cc3cc(F)ccc3Sc3ccc(Cl)cc32)CC1` (stereo unspecified), for which the EC50 is 14.7 µM.
As for `CSc1ccc2c(c1)C(N1CCN(C)CC1)Cc1ccc(F)cc1S2` (stereo unspecified), the EC50 is 5.63 µM.
Under `CCc1ccc2c(c1)C1(NN=C(c3ccc(C)cc3)S1)C(=O)N2` (stereo unspecified) stands 9.42 µM; under `O=c1[nH]cc(F)c(=O)[nH]1`, 6.24 µM; under `COc1ccc(C(=O)C[n+]2cc(Br)cc3ccccc32)cc1[N+](=O)[O-]`, < 0.1 µM.
Regarding `CCCCCCCCCCOC(=O)Cn1c(COc2ccc(Cl)cc2)[n+](C)c2ccccc21`, the EC50 was 1.92 µM.
Under `O=C(Nc1c(Cl)ccc2nsnc12)c1ccc([N+](=O)[O-])o1` stands 3.84 µM.
The same measure for `C=CCc1cc(Cl)ccc1OCCCNCCO`: 43.1 µM.
For the compound `OCCNc1nc(Nc2ccccc2)nc2ccccc12`, the EC50 was 3.06 µM.
The same measure for `CC(C(=O)NC1C=CS(=O)(=O)C1)N1C(=O)/C(=C/c2ccc(Cl)cc2)SC1=S` (stereo unspecified): 25.7 µM; for `CC(NCc1ccc(Cl)c(Cl)c1)C(O)c1ccccc1` (stereo unspecified): 30.6 µM.
Under `Fc1ccc(/C=N/Nc2nc3ccccc3[nH]2)cc1F` stands 42.8 µM.
As for `CC(=O)NC(=S)NNC(=O)c1ccc(Br)cc1`, the half-maximal effective concentration (EC50) is 27.6 µM.
The same measure for `COc1cc(C(=O)O/N=C2\C=CC(=O)C(C)=C2)cc(OC)c1OC`: 7.36 µM; for `Nn1cnnc1N/N=C\c1ccc(-c2ccccc2[N+](=O)[O-])o1`: 41.3 µM.
The same measure for `O=C(Nc1nnc(-c2cccs2)o1)c1cccc(F)c1`: 16.9 µM; for `Cc1ccc(Nc2c3c(nc4ccccc24)CCC3)cc1`: 9.1 µM; for `CNCCC=C1c2ccccc2CCc2ccccc21`: 22.5 µM.
In the case of `CN(C)CCCNc1c2ccccc2nc2ccccc12`, the EC50 was 3.46 µM.
The same measure for `CCCCOc1ccc(CSC(=N)N)cc1Cl`: 10.9 µM.
On to `Nc1nonc1C(=O)N/N=C/c1cc(Br)ccc1O`, for which the EC50 is 4.18 µM.
Under `Cc1ccc2sc(N(CCCN(C)C)C(=O)c3ccc(Br)s3)nc2c1C` stands 21.2 µM; under `CC(=O)NC(c1cccs1)c1cc([N+](=O)[O-])c2cccnc2c1O` (stereo unspecified), 10.5 µM.
Under `COc1ccc2[nH]cc(C(=O)CCl)c2c1` stands 7.78 µM; under `C[C@H]1c2cccc(O)c2C(O)=C2C(=O)C3(O)C(O)=C(C(N)=O)C(=O)[C@@H](N(C)C)[C@@H]3[C@@H](O)[C@@H]21` (stereo partly specified), 30.3 µM; under `COc1cccc(/C=N/NC(=O)CNC(=O)COc2cccc(C)c2)c1O`, 9.52 µM.
As for `OC(CNCCc1ccc(C(F)(F)F)cc1)COC(c1ccccc1)c1ccccc1` (stereo unspecified), the 50% effective concentration (EC50) is 15.9 µM.
With `CCc1ccc(Nc2n[n+](-c3ccccc3)c(-c3c(Cl)cccc3Cl)s2)cc1`, the EC50 is 3.75 µM.
Consider `O=C(N/N=C/c1ccccc1O)C1SCCCS1`, for which the EC50 is 26.1 µM.
For the compound `CC1CCN(CCCNC(=O)c2ccc3c(=O)n(Cc4ccc(Cl)cc4)c(=S)[nH]c3c2)CC1`, the EC50 is 16.8 µM.
In the case of `Oc1c(I)cc(Cl)c2cccnc12`, the EC50 is 14.7 µM.
Under `Cc1cc(=O)[nH]c(-n2nc(C)cc2C)n1` stands 27.8 µM; under `C#CCOCCOCCOCCNc1nc(N2CCN(C(=O)CCCCCCCCCCNC(=O)Cn3cc(CCCCCN)nn3)CC2)nc(N2CCN(C(=O)CCCCCCCCCCNC(=O)[C@H]([C@@H](C)CC)n3cc(CCCCCN)nn3)CC2)n1`, 14.5 µM; under `Cc1cccc(Nc2nc(NCc3ccco3)c3ccccc3n2)c1`, 4.43 µM.
With `Cc1cc2nc(C3CCN(CC4COc5ccccc5O4)CC3)[nH]c2cc1C` (stereo unspecified), the EC50 is 26.8 µM.
In the case of `Cc1ccc(C(=O)NNC(=S)NC(=O)COc2ccccc2)cc1`, the EC50 is 15.1 µM.
Under `CN(C)CCCN(C(=O)CCc1ccccc1)c1nc2ccc(Br)cc2s1` stands 13.4 µM; under `CCCCn1c(NS(=O)(=O)c2ccccc2)c(C(=O)OCC)c2nc3ccccc3nc21`, 20.1 µM; under `NC1=NC[C@H](Cc2ccc(O)cc2)N1CCC12CC3CC(CC(C3)C1)C2`, 13.2 µM.
Regarding `CCOC(=O)c1c(C)[nH]c(C(=O)CN2C(=O)NC(C)(c3ccc4ccccc4c3)C2=O)c1C` (stereo unspecified), the EC50 was 39.1 µM.
`COc1nccnc1NS(=O)(=O)c1ccc(N=Cc2c(C)[nH]n(-c3ccc(C)c(C)c3)c2=O)cc1`: the EC50 was 14.4 µM.
For the compound `CC[n+]1c(/C=C/N(C)c2ccccc2)n(-c2ccccc2)c2ccc(-c3nc4ccccc4s3)cc21`, the EC50 was 0.44 µM.
In the case of `COc1ccc(C(=O)NC(=S)NNC(=O)CCc2ccccc2)cc1`, the EC50 was 6.09 µM.
Under `CCN1CCN(CCCNC(=O)c2ccc(/C=C3/Sc4ccccc4N(Cc4ccccc4F)C3=O)cc2)CC1` stands 11.2 µM; under `OCCN1CCN(Cc2cc(Cl)c3cccnc3c2O)CC1`, 7.5 µM.
Under `O=c1cc(-c2ccccc2)cc(-c2ccccc2)n1O` stands 14 µM; under `Cc1[nH]c2ccccc2c1/C=C/c1nc2ccccc2c(=O)[nH]1`, 14 µM; under `CC(=O)c1c(C)nc(-c2cccc([N+](=O)[O-])c2)n1O`, < 0.1 µM.
As for `Cc1ccc(-c2nc(C(=O)NCCCN(C)C)cc3c2[nH]c2ccccc23)cc1`, the EC50 is 10.7 µM.
Under `CNCCCN1c2ccccc2CCc2ccccc21` stands 40.4 µM; under `O=C(CSc1ccccn1)Nc1nonc1[N+](=O)[O-]`, 6.9 µM.
Under `c1ccc2c(c1)CSc1sccc1C2=C1CCNCC1` stands 17.7 µM.
